In ChEMBL document CHEMBL1240358, “Activity of a new antipseudomonal cephalosporin, CXA-101 (FR264205), against carbapenem-resistant and multidrug-resistant Pseudomonas aeruginosa clinical strains” (2010):
In brackets after ≈: the same amount, converted by molar mass.

Assays:
Format in all cases: functional
[1] = tested on: Pseudomonas aeruginosa; experiment: Antibacterial activity against carbapenem-resistant Pseudomonas aeruginosa isolate 1E1 PpA1 harboring acquired beta-lactamase OXA-144 by broth microdilution method
[2] = tested on: Pseudomonas aeruginosa; experiment: Antibacterial activity against carbapenem-resistant Pseudomonas aeruginosa isolate 3C8 GM1 harboring acquired beta-lactamase OXA-144 by broth microdilution method
[3] = tested on: Pseudomonas aeruginosa; experiment: Antibacterial activity against Pseudomonas aeruginosa PAO1 harboring acquired beta-lactamase OXA-144 by broth microdilution method
[4] = tested on: Pseudomonas aeruginosa; experiment: Antibacterial activity against Pseudomonas aeruginosa PAO1 by broth microdilution method
[5] = tested on: Pseudomonas aeruginosa; experiment: Antibacterial activity against carbapenem-resistant Pseudomonas aeruginosa isolate 3C1 VAL6 by broth microdilution method
[6] = tested on: Pseudomonas aeruginosa; experiment: Antibacterial activity against carbapenem-resistant Pseudomonas aeruginosa isolate 1E3 PpA2 harboring acquired beta-lactamase OXA-101 by broth microdilution method
[7] = tested on: Pseudomonas aeruginosa; experiment: Antibacterial activity against carbapenem-resistant Pseudomonas aeruginosa isolate 1E2 PpA1 harboring acquired beta-lactamase OXA-144 by broth microdilution method
[8] = tested on: Pseudomonas aeruginosa; experiment: Antibacterial activity against Pseudomonas aeruginosa assessed as percent nonsusceptible isolates by broth microdilution assay
[9] = tested on: Pseudomonas aeruginosa; experiment: Antibacterial activity against carbapenem-resistant Pseudomonas aeruginosa isolate 3D2 GM2 harboring acquired beta-lactamase BEL-3 by broth microdilution method
[10] = tested on: Pseudomonas aeruginosa; experiment: Antibacterial activity against carbapenem-resistant Pseudomonas aeruginosa isolate 1C3 PTOL1 harboring acquired beta-lactamase OXA-17 by broth microdilution method
[11] = tested on: Pseudomonas aeruginosa; experiment: Antibacterial activity against carbapenem-resistant Pseudomonas aeruginosa isolate 1D5 SA1 harboring acquired beta-lactamase VIM-2 by broth microdilution method
[12] = tested on: Pseudomonas aeruginosa; experiment: Antibacterial activity against carbapenem-resistant Pseudomonas aeruginosa isolate 1C2 PTOL1 harboring beta-lactamase OXA-17 by broth microdilution method
[13] = tested on: Pseudomonas aeruginosa; experiment: Antibacterial activity against carbapenem-resistant Pseudomonas aeruginosa isolate 3C9 GM1 harboring acquired beta-lactamase OXA-144 by broth microdilution method
[14] = tested on: Pseudomonas aeruginosa; experiment: Antibacterial activity against Pseudomonas aeruginosa PAO1 harboring acquired beta-lactamase OXA-2 by broth microdilution method
[15] = tested on: Pseudomonas aeruginosa; experiment: Antibacterial activity against carbapenem-resistant Pseudomonas aeruginosa isolate 1B2 RCA2 harboring acquired beta-lactamase PER-1 by broth microdilution method

SMILES	MIC [1] [µg/mL]	MIC [2] [µg/mL]	MIC [3] [µg/mL]	MIC [4] [µg/mL]	MIC [5] [µg/mL]	MIC [6] [µg/mL]	MIC [7] [µg/mL]	Activity [8] [%]	MIC [9] [µg/mL]	MIC [10] [µg/mL]	MIC [11] [µg/mL]	MIC [12] [µg/mL]	MIC [13] [µg/mL]	MIC [14] [µg/mL]	MIC [15] [µg/mL]
CO/N=C(\C(=O)N[C@@H]1C(=O)N2C(C(=O)[O-])=C(C[N+]3(C)CCCC3)CS[C@H]12)c1csc(N)n1	16 (≈ 33.3 µM)	4 (≈ 8.32 µM)	8 (≈ 16.6 µM)	1 (≈ 2.08 µM)	64 (≈ 133 µM)	> 64	32 (≈ 66.6 µM)	68.2	32 (≈ 66.6 µM)	> 64	16 (≈ 33.3 µM)	> 64	4 (≈ 8.32 µM)	2 (≈ 4.16 µM)	–
NC[C@H]1O[C@H](O[C@H]2[C@H](O)[C@@H](O[C@H]3O[C@H](CO)[C@@H](O)[C@H](N)[C@H]3O)[C@H](N)C[C@@H]2N)[C@H](N)C[C@@H]1O [TOBRAMYCIN]	64 (≈ 137 µM)	16 (≈ 34.2 µM)	–	–	< 0.12	> 64	64 (≈ 137 µM)	33.9	8 (≈ 17.1 µM)	64 (≈ 137 µM)	64 (≈ 137 µM)	32 (≈ 68.4 µM)	16 (≈ 34.2 µM)	–	< 0.12
C[C@@H](O)[C@H]1C(=O)N2C(C(=O)O)=C(SCCNC=N)C[C@H]12 [IMIPENEM ANHYDROUS]	> 64	> 64	1 (≈ 3.34 µM)	1 (≈ 3.34 µM)	> 64	16 (≈ 53.4 µM)	> 64	33.9	64 (≈ 214 µM)	> 64	> 64	> 64	> 64	1 (≈ 3.34 µM)	64 (≈ 214 µM)
O=C(O)c1cn(C2CC2)c2cc(N3CCNCC3)c(F)cc2c1=O [CIPROFLOXACIN]	–	–	–	–	–	1 (≈ 3.02 µM)	16 (≈ 48.3 µM)	–	–	4 (≈ 12.1 µM)	–	4 (≈ 12.1 µM)	–	–	–
NCC[C@H](O)C(=O)N[C@@H]1C[C@H](N)[C@@H](O[C@H]2O[C@H](CN)[C@@H](O)[C@H](O)[C@H]2O)[C@H](O)[C@H]1O[C@H]1O[C@H](CO)[C@@H](O)[C@H](N)[C@H]1O [AMIKACIN]	16 (≈ 27.3 µM)	4 (≈ 6.83 µM)	–	–	2 (≈ 3.42 µM)	32 (≈ 54.6 µM)	32 (≈ 54.6 µM)	18.6	8 (≈ 13.7 µM)	32 (≈ 54.6 µM)	16 (≈ 27.3 µM)	32 (≈ 54.6 µM)	4 (≈ 6.83 µM)	–	1 (≈ 1.71 µM)
